In patent US20160130278A1 (TAISHO PHARMACEUTICAL CO., LTD, priority 2013, published 2016) one finds IC50 data, which are given here for 25 compounds.

For the assay, the target named is T1, human type 1 glycine transporter (GlyT1) (Homo sapiens, UniProt P48067).
T1 construct: T98G cells (glioma cells) expressing human type 1 glycine transporter (GlyT1) were used
T1 sequence (P48067 1-706): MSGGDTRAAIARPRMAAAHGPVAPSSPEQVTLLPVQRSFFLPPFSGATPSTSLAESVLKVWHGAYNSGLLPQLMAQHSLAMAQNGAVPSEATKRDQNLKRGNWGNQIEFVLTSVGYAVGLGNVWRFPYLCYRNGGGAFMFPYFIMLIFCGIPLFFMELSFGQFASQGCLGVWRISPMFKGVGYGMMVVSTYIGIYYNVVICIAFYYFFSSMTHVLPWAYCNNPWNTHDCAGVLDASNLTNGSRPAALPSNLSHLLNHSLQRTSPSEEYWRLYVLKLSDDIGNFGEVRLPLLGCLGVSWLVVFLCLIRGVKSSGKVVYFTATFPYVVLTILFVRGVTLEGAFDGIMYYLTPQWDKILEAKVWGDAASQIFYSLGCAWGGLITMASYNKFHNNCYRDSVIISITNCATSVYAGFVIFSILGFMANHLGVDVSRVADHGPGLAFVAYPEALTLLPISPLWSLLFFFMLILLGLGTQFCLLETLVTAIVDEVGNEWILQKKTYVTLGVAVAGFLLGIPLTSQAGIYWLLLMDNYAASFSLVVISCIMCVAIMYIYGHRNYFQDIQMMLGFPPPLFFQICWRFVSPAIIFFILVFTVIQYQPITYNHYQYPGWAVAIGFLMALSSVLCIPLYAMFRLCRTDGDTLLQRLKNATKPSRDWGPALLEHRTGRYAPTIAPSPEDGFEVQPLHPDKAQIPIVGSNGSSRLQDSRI
Nature of the assay: Glycine uptake inhibition experiment ([3H]glycine uptake). It counts as cell-based. The method in brief:
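T98G glioma cells expressing human GlyT1 were pretreated 10 min with compound in HEPES buffer pH 7.4 (0.2% BSA), then incubated with compound plus 250 nM final [3H]glycine for 15 min at room temperature. Intracellular radioactivity was counted after NaOH lysis; 10 μM ALX5407 defined non-specific uptake. IC50 came from 10^−9–10^−5 M curves.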

Usually IC50 stands for the point on the concentration scale where inhibition reaches its midpoint. A lower IC50 goes with inhibition by little substance. `O=C(NC(c1cc(Cl)ccn1)[C@]1(O)CC[C@@H](F)CC1)c1ccc(C(F)(F)F)nc1Cl` (single isomer, unassigned) [Compound 335, 2-chloro-N-[(4-chloropyridin-2-yl)(cis-4-fluoro-1-hydroxycyclohexyl)methyl]-6-(trifluoromethyl)pyridine-3-carboxamide]: where the note is “GlyT1”, the IC50 amounted to 270 nM.
Same read-out and setting: then `N#Cc1cccc(C(NC(=O)c2cccc(C(F)(F)F)c2Cl)C2(O)CCCC2)c1` (stereo not shown) [Compound 8, 2-chloro-N-[(3-cyanophenyl)(1-hydroxycyclopentyl)methyl]-3-(trifluoromethyl)benzamide], with 400 nM.
`CS(=O)(=O)c1cc(C(F)(F)F)ccc1C(=O)NC(c1ccccc1Cl)C1(O)CCC(F)(F)CC1` (single isomer, unassigned) [Compound 405, N-[(2-chlorophenyl)(4,4-difluoro-1-hydroxycyclohexyl)methyl]-2-(methylsulfonyl)-4-(trifluoromethyl)benzamide]: the IC50 (human GlyT1) stood at 200 nM.
Where the note is “GlyT1”, `O=C(NC(c1cccc(-n2cccn2)c1)C1(O)CCCC1)c1nccc(C(F)(F)F)c1Cl` (single isomer, unassigned) [Compound 83, 3-chloro-N-{(1-hydroxycyclopentyl)[3-(1H-pyrazol-1-yl)phenyl]methyl}-4-(trifluoromethyl)pyridine-2-carboxamide] had a 50% inhibitory concentration (IC50) of 3900 nM.
Same read-out and setting: then `O=C(NC(c1cccc(Cl)n1)[C@]1(O)CC[C@@H](F)CC1)c1ccc(C(F)(F)F)cc1Cl` (single isomer, unassigned) [Compound 363, 2-chloro-N-[(6-chloropyridin-2-yl)(cis-4-fluoro-1-hydroxycyclohexyl)methyl]-4-(trifluoromethyl)benzamide], with 240 nM; and `O=C(NC(c1cc(Cl)ccc1Cl)C1(O)CCCC1)c1nccc(C(F)(F)F)c1Cl` (stereo not shown) [Compound 108, 3-chloro-N-[(2,5-dichlorophenyl)(1-hydroxycyclopentyl)methyl]-4-(trifluoromethyl)pyridine-2-carboxamide], with 68 nM; and `CCn1cc(-c2cccc(C(NC(=O)c3cccc(F)c3Cl)C3(O)CCC(F)(F)CC3)c2)cn1` (stereo not shown) [Compound 209, 2-chloro-N-{(4,4-difluoro-1-hydroxycyclohexyl)[3-(1-ethyl-1H-pyrazol-4-yl)phenyl]methyl}-3-fluorobenzamide], with 1200 nM.
On the same count and under the same terms, then `O=C(NC(c1cccc(Br)c1)C1(O)CCCCC1)c1nccc(C(F)(F)F)c1Cl` (single isomer, unassigned) [Compound 43, N-[(3-bromophenyl)(1-hydroxycyclohexyl)methyl]-3-chloro-4-(trifluoromethyl)pyridine-2-carboxamide], with 1400 nM; and `O=C(NC(c1cccc(Cl)c1Cl)C1(O)CCCC1)c1nccc(C(F)(F)F)c1Cl` (stereo not shown) [Compound 107, 3-chloro-N-[(2,3-dichlorophenyl)(1-hydroxycyclopentyl)methyl]-4-(trifluoromethyl)pyridine-2-carboxamide], with 39 nM; and `O=C(NC(c1cccc(Cl)c1Cl)C1(O)CCC(F)(F)CC1)c1nccc(C(F)(F)F)c1Cl` (single isomer, unassigned) [Compound 137, 3-chloro-N-[(2,3-dichlorophenyl)(4,4-difluoro-1-hydroxycyclohexyl)methyl]-4-(trifluoromethyl)pyridine-2-carboxamide], with 62 nM.
Still for that read-out and setting: the result for `O=C(NC(c1cccc(F)c1Cl)[C@]1(O)CC[C@@H](F)CC1)c1c(F)cccc1Cl` (single isomer, unassigned) [Compound 301, 2-chloro-N-[(2-chloro-3-fluorophenyl)(cis-4-fluoro-1-hydroxycyclohexyl)methyl]-6-fluorobenzamide] reads 1100 nM; that for `O=C(NC(c1cccc(F)c1Cl)[C@]1(O)CC[C@@H](F)CC1)c1cc(-n2ccnn2)ccc1Cl` (single isomer, unassigned) [Compound 337, 2-chloro-N-[(2-chloro-3-fluorophenyl)(cis-4-fluoro-1-hydroxycyclohexyl)methyl]-5-(1H-1,2,3-triazol-1-yl)benzamide], 1900 nM.
On to `O=C(N[C@@H](c1cccc(Cl)c1)[C@]1(O)CC[C@@H](F)CC1)c1nccc(C(F)(F)F)c1Cl` [Compound 162, 3-chloro-N-[(S)-(3-chlorophenyl)(cis-4-fluoro-1-hydroxycyclohexyl)methyl]-4-(trifluoromethyl)pyridine-2-carboxamide], for which the IC50 (GlyT1) turned out to be 65 nM.
Consider `O=C(NC(c1cc(Cl)ccc1F)[C@]1(O)CC[C@@H](F)CC1)c1cc(C(F)(F)F)ncc1Cl` (single isomer, unassigned) [Compound 377, 5-chloro-N-[(5-chloro-2-fluorophenyl)(cis-4-fluoro-1-hydroxycyclohexyl)methyl]-2-(trifluoromethyl)pyridine-4-carboxamide], for which half-maximal inhibition (GlyT1) (IC50) was put at 920 nM.
On the same count and under the same terms, then `O=C(NC(c1cc(Cl)ccc1F)[C@]1(O)CC[C@@H](F)CC1)c1cc(C(F)(F)F)cnc1Cl` (single isomer, unassigned) [Compound 378, 2-chloro-N-[(5-chloro-2-fluroophenyl)(cis-4-fluoro-1-hydroxycyclohexyl)methyl]-5-(trifluoromethyl)pyridine-3-carboxamide], with 2300 nM.
The same measure, in the same setting: then `O=C(NC(c1cc(Cl)ccn1)C1(O)CCC(F)(F)CC1)c1cc(C(F)(F)F)ncc1Cl` (single isomer, unassigned) [Compound 348, 5-chloro-N-[(4-chloropyridin-2-yl)(4,4-difluoro-1-hydroxycyclohexyl)methyl]-2-(trifluoromethyl)pyridine-4-carboxamide], with 490 nM.
Same read-out and setting: the result for `O=C(NC(c1ncccc1Cl)[C@]1(O)CC[C@@H](F)CC1)c1nccc(C(F)(F)F)c1Cl` (single isomer, unassigned) [Compound 303, 3-chloro-N-[(3-chloropyridin-2-yl)(cis-4-fluoro-1-hydroxycyclohexyl)methyl]-4-(trifluoromethyl)pyridine-2-carboxmaide] reads 4000 nM; that for `O=C(NC(c1cccc(-c2ccncc2)c1)C1(O)CCCC1)c1nccc(C(F)(F)F)c1Cl` (stereo not shown) [Compound 19, 3-chloro-N-{(1-hydroxycyclopentyl)[3-(pyridin-4-yl)phenyl]methyl}-4-(trifluoromethyl)pyridine-2-carboxamide], 34 nM; that for `O=C(NC(c1cccc(F)c1)C1(O)CCC1)c1nccc(C(F)(F)F)c1Cl` (stereo not shown) [Compound 62, 3-chloro-N-[(3-fluorophenyl)(1-hydroxycyclobutyl)methyl]-4-(trifluoromethyl)pyridine-2-carboxamide], 2100 nM.
`O=C(NC(c1cccc(Cl)c1)C1(O)CCC(F)(F)CC1)c1nccc(C(F)(F)F)c1Cl` (single isomer, unassigned) [Compound 166, 3-chloro-N-[(3-chlorophenyl)(4,4-difluoro-1-hydroxycyclohexyl)methyl]-4-(trifluoromethyl)pyridine-2-carboxamide] displayed an IC50 (GlyT1) of 180 nM. Against the preceding compound, the IC50 is about 12-fold lower.
On the same count and under the same terms, then `O=C(NC(c1cccnc1Cl)C1(O)CCC(F)(F)CC1)c1ccc(C(F)(F)F)nc1Cl` (single isomer, unassigned) [Compound 344, 2-chloro-N-[(2-chloropyridin-3-yl)(4,4-difluroo-1-hydroxycyclohexyl)methyl]-6-(trifluoromethyl)pyridine-3-carboxamide], with 2300 nM.
In the case of `O=C(NC(c1ccccc1Cl)C1(O)CCC(F)(F)CC1)c1ccnc(C(F)(F)F)c1Cl` (single isomer, unassigned) [Compound 155, 3-chloro-N-[(2-chlorophenyl)(4,4-difluoro-1-hydroxycyclohexyl)methyl]-2-(trifluoromethyl)pyridine-4-carboxamide], half-maximal inhibition (GlyT1) (IC50) required 170 nM.
Where the note is “GlyT1”, `O=C(NC(c1ccc(F)c(Cl)c1)[C@]1(O)CC[C@@H](F)CC1)c1nccc(C(F)(F)F)c1Cl` (single isomer, unassigned) [Compound 228, 3-chloro-N-[(3-chloro-4-fluorophenyl)(cis-4-fluoro-1-hydroxycyclohexyl)methyl]-4-(trifluoromethyl)pyridine-2-carboxamide] yielded a concentration for half-maximal inhibition (IC50) of 4200 nM.
Still for that read-out and setting: then `O=C(NC(c1cccnc1Cl)[C@]1(O)CC[C@@H](F)CC1)c1cc(C(F)(F)F)ncc1Cl` (single isomer, unassigned) [Compound 323, 5-chloro-N-[(2-chloropyridin-3-yl)(cis-4-fluoro-1-hydroxycyclohexyl)methyl]-2-(trifluoromethyl)pyridine-4-carboxamide], with 200 nM; and `CC(C)n1cc(-c2cccc(C(NC(=O)c3nccc(C(F)(F)F)c3Cl)C3(O)CCC(F)(F)CC3)c2)cn1` (single isomer, unassigned) [Compound 134, 3-chloro-N-[(4,4-difluoro-1-hydroxycyclohexyl){3-[1-(propan-2-yl)-1H-pyrazol-4-yl]phenyl}methyl]-4-(trifluoromethyl)pyridine-2-carboxamide], with 31 nM.
